Assay results as given in patent US10112941B2, “Tricyclic compounds as anticancer agents” (BRISTOL-MYERS SQUIBB COMPANY, priority 2013, dated 2018).

biological target: BRD4 (Homo sapiens, UniProt O60885); assay: Time Resolved Fluorescence Resonance Energy Transfer (TR-FRET) binding assay, BRD4; conditions: one of the FRET assays described; read-out: FRET BRD4 IC50

Compound	IC50 [nM]
Cc1noc(C)c1-c1cnc2c3ccc(C(C)(C)O)cc3n(C(c3ccccc3)C3CCOCC3)c2c1 (single isomer, unassigned) [Example 1, 2-[3-(Dimethyl-1,2-oxazol-4-yl)-5-[oxan-4-yl(phenyl)methyl]-5H-pyrido[3,2-b]indol-7-yl]propan-2-ol]	< 5
Cc1noc(C)c1-c1cnc2c3ccc(C(C)(C)O)cc3n(C(c3ccccc3)C3CCOCC3)c2c1 (single isomer, unassigned) [Example 2, 2-[3-(Dimethyl-1,2-oxazol-4-yl)-5-[oxan-4-yl(phenyl)methyl]-5H-pyrido[3,2-b]indol-7-yl]propan-2-ol]	< 5
Cc1noc(C)c1-c1cnc2c3ccc(C(C)(C)O)cc3n(C(c3ccccc3)C3CCC(F)(F)CC3)c2c1 (single isomer, unassigned) [Example 27, 2-{5-[(4,4-Difluorocyclohexyl)(phenyl)methyl]-3-(dimethyl-1,2-oxazol-4-yl)-5H-pyrido[3,2-b]indol-7-yl}propan-2-ol]	< 5
Cc1noc(C)c1-c1cnc2c3ccc(C(C)(C)O)cc3n(C(c3ccccc3)C3CCC(F)(F)CC3)c2c1 (single isomer, unassigned) [Example 28, 2-{5-[(4,4-Difluorocyclohexyl)(phenyl)methyl]-3-(dimethyl-1,2-oxazol-4-yl)-5H-pyrido[3,2-b]indol-7-yl}propan-2-ol]	< 5
Cc1noc(C)c1-c1cnc2c3ccc(C(C)(C)O)cc3n(C(c3ccccc3)c3cscn3)c2c1 (single isomer, unassigned) [Example 29, 2-[3-(Dimethyl-1,2-oxazol-4-yl)-5-[phenyl(1,3-thiazol-4-yl)methyl]-5H-pyrido[3,2-b]indol-7-yl]propan-2-ol]	< 5
Cc1noc(C)c1-c1cnc2c3ccc(C(C)(C)O)cc3n(C(c3ccccc3)c3cscn3)c2c1 (single isomer, unassigned) [Example 30, 2-[3-(Dimethyl-1,2-oxazol-4-yl)-5-[phenyl(1,3-thiazol-4-yl)methyl]-5H-pyrido[3,2-b]indol-7-yl]propan-2-ol]	< 5
Cc1noc(C)c1-c1cnc2c3ccc(C(C)(C)O)cc3n(C(c3ccccc3)C3(F)CCC3)c2c1 (single isomer, unassigned) [Example 32, 2-[3-(Dimethyl-1,2-oxazol-4-yl)-5-[(1-fluorocyclobutyl)(phenyl)methyl]-5H-pyrido[3,2-b]indol-7-yl]propan-2-ol]	< 5
Cc1noc(C)c1-c1cnc2c3ccc(C(C)(C)O)cc3n(C(c3ccccc3)C3(F)CCC3)c2c1 (single isomer, unassigned) [Example 33, 2-[3-(Dimethyl-1,2-oxazol-4-yl)-5-[(1-fluorocyclobutyl)(phenyl)methyl]-5H-pyrido[3,2-b]indol-7-yl]propan-2-ol]	< 5
Cc1noc(C)c1-c1cnc2c3ccc(C(C)(C)O)cc3n(C(CCC(F)(F)F)c3cocn3)c2c1 (single isomer, unassigned) [Example 34, 2-[3-(Dimethyl-1,2-oxazol-4-yl)-5-[4,4,4-trifluoro-1-(1,3-oxazol-4-yl)butyl]-5H-pyrido[3,2-b]indol-7-yl]propan-2-ol]	< 5
Cc1noc(C)c1-c1cnc2c3ccc(C(C)(C)O)cc3n(C(CCC(F)(F)F)c3cocn3)c2c1 (single isomer, unassigned) [Example 35, 2-[3-(Dimethyl-1,2-oxazol-4-yl)-5-[4,4,4-trifluoro-1-(1,3-oxazol-4-yl)butyl]-5H-pyrido[3,2-b]indol-7-yl]propan-2-ol]	< 25
Cc1noc(C)c1-c1cnc2c3ccc(C(C)(C)O)cc3n(C(CCC(F)(F)F)c3cnoc3)c2c1 (single isomer, unassigned) [Example 36, 2-[3-(Dimethyl-1,2-oxazol-4-yl)-5-[4,4,4-trifluoro-1-(1,2-oxazol-4-yl)butyl]-5H-pyrido[3,2-b]indol-7-yl]propan-2-ol]	< 25
Cc1noc(C)c1-c1cnc2c3ccc(C(C)(C)O)cc3n(C(CCC(F)(F)F)c3cnoc3)c2c1 (single isomer, unassigned) [Example 37, 2-[3-(Dimethyl-1,2-oxazol-4-yl)-5-[4,4,4-trifluoro-1-(1,2-oxazol-4-yl)butyl]-5H-pyrido[3,2-b]indol-7-yl]propan-2-ol]	< 5
Cc1noc(C)c1-c1cnc2c3ccc(S(C)(=O)=O)cc3n(C(CCC(F)(F)F)c3ccccc3)c2c1 (single isomer, unassigned) [Example 38, 4-[7-Methanesulfonyl-5-(4,4,4-trifluoro-1-phenylbutyl)-5H-pyrido[3,2-b]indol-3-yl]-3,5-dimethyl-1,2-oxazole]	< 25
Cc1noc(C)c1-c1cnc2c3ccc(S(C)(=O)=O)cc3n(C(CCC(F)(F)F)c3ccccc3)c2c1 (single isomer, unassigned) [Example 39, 4-[7-Methanesulfonyl-5-(4,4,4-trifluoro-1-phenylbutyl)-5H-pyrido[3,2-b]indol-3-yl]-3,5-dimethyl-1,2-oxazole]	< 1500
Cc1oncc1-c1cnc2c3ccc(C(C)(C)O)cc3n(C(c3ccc(F)cc3)C3CCOCC3)c2c1 (single isomer, unassigned) [Example 40, 2-{5-[(4-Fluorophenyl)(oxan-4-yl)methyl]-3-(5-methyl-1,2-oxazol-4-yl)-5H-pyrido[3,2-b]indol-7-yl}propan-2-ol]	< 25
Cc1oncc1-c1cnc2c3ccc(C(C)(C)O)cc3n(C(c3ccc(F)cc3)C3CCOCC3)c2c1 (single isomer, unassigned) [Example 41, 2-{5-[(4-Fluorophenyl)(oxan-4-yl)methyl]-3-(5-methyl-1,2-oxazol-4-yl)-5H-pyrido[3,2-b]indol-7-yl}propan-2-ol]	< 1500
Cc1nocc1-c1cnc2c3ccc(C(C)(C)O)cc3n(C(c3ccc(F)cc3)C3CCOCC3)c2c1 (single isomer, unassigned) [Example 42, 2-{5-[(4-Fluorophenyl)(oxan-4-yl)methyl]-3-(3-methyl-1,2-oxazol-4-yl)-5H-pyrido[3,2-b]indol-7-yl}propan-2-ol]	< 25
Cc1nocc1-c1cnc2c3ccc(C(C)(C)O)cc3n(C(c3ccc(F)cc3)C3CCOCC3)c2c1 (single isomer, unassigned) [Example 43, 2-{5-[(4-Fluorophenyl)(oxan-4-yl)methyl]-3-(3-methyl-1,2-oxazol-4-yl)-5H-pyrido[3,2-b]indol-7-yl}propan-2-ol]	< 1500
Cc1nnn(C)c1-c1cnc2c3ccc(C(C)(C)O)cc3n([C@H](c3ccccc3)C3CCOCC3)c2c1 (single isomer, unassigned) [Example 54]	< 5
Cc1nnn(C)c1-c1cnc2c3ccc(C(C)(C)O)cc3n([C@@H](c3ccccc3)C3CCOCC3)c2c1 (single isomer, unassigned) [Example 55, 2-[3-(Dimethyl-1H-1,2,3-triazol-5-yl)-5-[oxan-4-yl(phenyl)methyl]-5H-pyrido[3,2-b]indol-7-yl]propan-2-ol]	< 5
Cn1nncc1-c1cnc2c3ccc(C(C)(C)O)cc3n(C(c3ccc(F)cc3)C3CCOCC3)c2c1 (single isomer, unassigned) [Example 66, 2-{5-[(4-Fluorophenyl)(oxan-4-yl)methyl]-3-(1-methyl-1H-1,2,3-triazol-5-yl)-5H-pyrido[3,2-b]indol-7-yl}propan-2-ol]	< 5
Cn1nncc1-c1cnc2c3ccc(C(C)(C)O)cc3n(C(c3ccc(F)cc3)C3CCOCC3)c2c1 (single isomer, unassigned) [Example 67, 2-{5-[(4-Fluorophenyl)(oxan-4-yl)methyl]-3-(1-methyl-1H-1,2,3-triazol-5-yl)-5H-pyrido[3,2-b]indol-7-yl}propan-2-ol]	< 25
Cc1nnn(C)c1-c1cnc2c3ccc(C(C)(C)O)c(F)c3n(C(c3ccccc3)C3CCOCC3)c2c1 (single isomer, unassigned) [Example 71, 2-[3-(Dimethyl-1H-1,2,3-triazol-5-yl)-6-fluoro-5-[oxan-4-yl(phenyl)methyl]-5H-pyrido[3,2-b]indol-7-yl]propan-2-ol]	< 5
Cc1nnn(C)c1-c1cnc2c3cc(F)c(C(C)(C)O)cc3n(C(c3ccc(F)cc3)C3CCOCC3)c2c1 (single isomer, unassigned) [Example 78, 2-[3-(Dimethyl-1H-1,2,3-triazol-5-yl)-8-fluoro-5-[(4-fluorophenyl)(oxan-4-yl)methyl]-5H-pyrido[3,2-b]indol-7-yl]propan-2-ol]	< 5
Cc1nnn(C)c1-c1cnc2c3cc(F)c(C(C)(C)O)cc3n(C(c3ccc(F)cc3)C3CCOCC3)c2c1 (single isomer, unassigned) [Example 79, 2-[3-(Dimethyl-1H-1,2,3-triazol-5-yl)-8-fluoro-5-[(4-fluorophenyl)(oxan-4-yl)methyl]-5H-pyrido[3,2-b]indol-7-yl]propan-2-ol]	< 25
Cc1noc(C)c1-c1cnc2c3ccc(C(C)(C)O)c(F)c3n(C(c3ccc(F)cc3)C3CCOCC3)c2c1 (single isomer, unassigned) [Example 80, 2-[3-(Dimethyl-1,2-oxazol-4-yl)-6-fluoro-5-[(4-fluorophenyl)(oxan-4-yl)methyl]-5H-pyrido[3,2-b]indol-7-yl]propan-2-ol]	< 25
Cc1noc(C)c1-c1cnc2c3ccc(C(C)(C)O)c(F)c3n(C(c3ccc(F)cc3)C3CCOCC3)c2c1 (single isomer, unassigned) [Example 81, 2-[3-(Dimethyl-1,2-oxazol-4-yl)-6-fluoro-5-[(4-fluorophenyl)(oxan-4-yl)methyl]-5H-pyrido[3,2-b]indol-7-yl]propan-2-ol]	< 5
Cc1nnn(C)c1-c1cnc2c3ccc(C(C)(C)O)cc3n(C(c3cccc(F)c3F)C3CCOCC3)c2c1 (single isomer, unassigned) [Example 94, 2-{5-[(2,3-Difluorophenyl)(oxan-4-yl)methyl]-3-(dimethyl-1H-1,2,3-triazol-5-yl)-5H-pyrido[3,2-b]indol-7-yl}propan-2-ol]	< 5
Cc1nnn(C)c1-c1cnc2c3ccc(C(C)(C)O)cc3n(C(c3cccc(F)c3F)C3CCOCC3)c2c1 (single isomer, unassigned) [Example 95, 2-{5-[(2,3-Difluorophenyl)(oxan-4-yl)methyl]-3-(dimethyl-1H-1,2,3-triazol-5-yl)-5H-pyrido[3,2-b]indol-7-yl}propan-2-ol]	< 5
